Assay results: patent US10149830B2, “Pharmaceutical agents and methods relating thereto” (Cushing Academy, priority 2016, dated 2018)

Columns and labels:
[1] = system: HL-60 (promyelocytic leukemia); experiment: MTT reduction cytotoxicity assay, HL-60; assay type: cell-based; conditions: Homo sapiens, HL-60, MTT, 72 h incubation
Experimental: (§1) The human tumor cell lines used were HL-60 (promyelocytic leukemia), MCF-7 (breast adenocarcinoma) and NCI-H292 (lung carcinoma). The cells were obtained from Rio de Janeiro Cell Bank (RJ, Brazil). Cancer cells were maintained in RPMI 1640 medium or DMEN supplemented with 10% fetal bovine serum, 2 mM glutamine, 100 U/mL penicillin, 100 μg/mL streptomycin at 37° C. with 5% CO2. Cytotoxicity of (6R)-6-[(2Z)-pent-2-enyl]-5,6-dihydro-2H-pyran-2-one [(R)-(−)-Tuberolactone] against the three tumor cell lines was assessed using the 3-(4,5-dimethyl-2-thiazolyl)-2,5-diphenyl-2H tetrazolium bromide (MTT) (Sigma Aldrich Co., St. Louis, Mo., USA) reduction assay. Tumor cells were plated in 96-well plates (10^5 cells/mL for adherent cells or 3×10^5 cells/mL for Leukemia). (6R)-6-[(2Z)-pent-2-enyl]-5,6-dihydro-2H-pyran-2-one [(R)-(−)-Tuberolactone] in DMSO (0.3-25 μg/mL) were added to each well and incubated for 72 h. Control groups received the same amount of DMSO. After 69 h of treatment, 25 μL of MTT (5 mg/mL) was added. Three hours later, the MTT formazan product was dissolved in 100 μL of DMSO. Absorbance was measured at 595 nm in plate spectrophotometer (Varioskan Flash, Thermo Scientific). […] IC50 values and their 95% confidence intervals for two different experiments were obtained by non linear regression using Graphpad Prism version 5.0 for Windows (GraphPad Software, San Diego, Calif., USA).

[2] = system: NCI-H292 (lung carcinoma); experiment: MTT reduction cytotoxicity assay, NCI-H292; assay type: cell-based; conditions: Homo sapiens, 72 h incubation
Experimental: as §1

[3] = system: MCF-7 (breast adenocarcinoma); experiment: MTT reduction cytotoxicity assay, MCF-7; assay type: cell-based; conditions: Homo sapiens, MCF7, MCF-7, MTT, 72 h incubation
Experimental: as §1

S. lutea = experiment: Paper disk diffusion antibacterial test, S. lutea; assay type: cell-based, Sarcina lutea; conditions: gram-(+) strain, 24 h at 28° C.
Experimental: (§2) 235 mg alkaloids were extracted from 750 g leaves from the plant, Gaultheria procumbens (also called American wintergreen, teaberry, or boxberry). Fractionation of the crude extract was guided by antimicrobial activity against several gram-(+) and gram-(−) strains: Enterobacter aerogenes (Gram-negative rods), Bacillus cereus (Gram-positive rods), and Sarcina lutea (Gram-positive […]), using the paper disk diffusion method (Barry, A. L.; Thornsbery, C. Identification for Clinical Microbiology, 4th ed.; Washington, D.C., 1985; p 978) supplied within the Science Kit & Boreal Laboratories Antibiotic Effects Kit. The SK Antibiotics Effect Kit uses “Easygel” instead of agar dishes. Each paper disk (6 mm) containing approximately 100 μg of the extract was placed directly onto an Easygel plate, which had been freshly inoculated with either a gram-(+) or (−) strain. In addition, a standard antibiotic disk (30 μg of either penicillin, tetracycline, or chloramphenicol supplied within Science Kit & Boreal Laboratories Antibiotic Effects Kit) as well as a blank disk (with only solvent) were placed on the freshly inoculated Easygel plate. […] 45 mg (6R)-6-[(2Z)-pent-2-enyl]-5,6-dihydro-2H-pyran-2-one [(R)-(−)-Tuberolactone] were isolated (MW. 166.0989 g/mol). […]

B. cereus = experiment: Paper disk diffusion antibacterial test, B. cereus; assay type: cell-based, Bacillus cereus; conditions: gram-(+) strain, 24 h at 28° C.
Experimental: as §2

E. aerogenes = experiment: Paper disk diffusion antibacterial test, E. aerogenes; assay type: cell-based, Enterobacter aerogenes; conditions: gram-(−) strain, 24 h at 28° C.
Experimental: as §2

SMILES	IC50 ([1]; two experiments)	IC50 ([2]; two experiments)	IC50 ([2]; value in parentheses)	IC50 ([1]; value in parentheses)	IC50 ([3]; two experiments)	IC50 ([3]; value in parentheses)	antibacterial activity against S. lutea (S. lutea)	antibacterial activity against B. cereus (B. cereus)	antibacterial activity against E. aerogenes (E. aerogenes)
COc1cccc2c1C(=O)c1c(O)c3c(c(O)c1C2=O)C[C@@](O)(C(=O)CO)C[C@@H]3O[C@H]1C[C@H](N)[C@H](O)[C@H](C)O1 [Doxorubicin, reference compound]	0.02 µg/mL	0.2 µg/mL	0.36 µM	–	–	–	–	–	–
CC/C=C\C[C@@H]1CC=CC(=O)O1 [Tuberolactone, (6R)-6-[(2Z)-pent-2-enyl]-5,6-dihydro-2H-pyran-2-one]	4.4 µg/mL	5.9 µg/mL	35.5 µM	26 µM	6.4 µg/mL	38.5 µM	confirmed	confirmed	confirmed
